Consider seven compounds from patent publication US20230382924A1, “MODULATORS OF CYSTIC FIBROSIS TRANSMEMBRANE CONDUCTANCE REGULATOR” (VERTEX PHARMACEUTICALS INCORPORATED, priority 2020, published 2023).

Data set [1] deals with T1, CFTR (Homo sapiens, UniProt P13569). In words: Membrane Potential Dye, Enteroid Assay B. It counts as cell-based. The conditions noted are these: for EC50: read-out: Ent. B EC50. An outline of the steps:
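Enteroid cells loaded 25 min at room temperature with 20 μM methyl oxonol plus 30 μM CaCCinh-A01 and 30 μM Chicago Sky Blue, then switched to chloride-free gluconate buffer. Chloride transport was started by chloride-free stimulation solution, with fluorescence read for 15 min.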
Target sequence in this assay (P13569 with tags, fused parts or gaps DEL508-508): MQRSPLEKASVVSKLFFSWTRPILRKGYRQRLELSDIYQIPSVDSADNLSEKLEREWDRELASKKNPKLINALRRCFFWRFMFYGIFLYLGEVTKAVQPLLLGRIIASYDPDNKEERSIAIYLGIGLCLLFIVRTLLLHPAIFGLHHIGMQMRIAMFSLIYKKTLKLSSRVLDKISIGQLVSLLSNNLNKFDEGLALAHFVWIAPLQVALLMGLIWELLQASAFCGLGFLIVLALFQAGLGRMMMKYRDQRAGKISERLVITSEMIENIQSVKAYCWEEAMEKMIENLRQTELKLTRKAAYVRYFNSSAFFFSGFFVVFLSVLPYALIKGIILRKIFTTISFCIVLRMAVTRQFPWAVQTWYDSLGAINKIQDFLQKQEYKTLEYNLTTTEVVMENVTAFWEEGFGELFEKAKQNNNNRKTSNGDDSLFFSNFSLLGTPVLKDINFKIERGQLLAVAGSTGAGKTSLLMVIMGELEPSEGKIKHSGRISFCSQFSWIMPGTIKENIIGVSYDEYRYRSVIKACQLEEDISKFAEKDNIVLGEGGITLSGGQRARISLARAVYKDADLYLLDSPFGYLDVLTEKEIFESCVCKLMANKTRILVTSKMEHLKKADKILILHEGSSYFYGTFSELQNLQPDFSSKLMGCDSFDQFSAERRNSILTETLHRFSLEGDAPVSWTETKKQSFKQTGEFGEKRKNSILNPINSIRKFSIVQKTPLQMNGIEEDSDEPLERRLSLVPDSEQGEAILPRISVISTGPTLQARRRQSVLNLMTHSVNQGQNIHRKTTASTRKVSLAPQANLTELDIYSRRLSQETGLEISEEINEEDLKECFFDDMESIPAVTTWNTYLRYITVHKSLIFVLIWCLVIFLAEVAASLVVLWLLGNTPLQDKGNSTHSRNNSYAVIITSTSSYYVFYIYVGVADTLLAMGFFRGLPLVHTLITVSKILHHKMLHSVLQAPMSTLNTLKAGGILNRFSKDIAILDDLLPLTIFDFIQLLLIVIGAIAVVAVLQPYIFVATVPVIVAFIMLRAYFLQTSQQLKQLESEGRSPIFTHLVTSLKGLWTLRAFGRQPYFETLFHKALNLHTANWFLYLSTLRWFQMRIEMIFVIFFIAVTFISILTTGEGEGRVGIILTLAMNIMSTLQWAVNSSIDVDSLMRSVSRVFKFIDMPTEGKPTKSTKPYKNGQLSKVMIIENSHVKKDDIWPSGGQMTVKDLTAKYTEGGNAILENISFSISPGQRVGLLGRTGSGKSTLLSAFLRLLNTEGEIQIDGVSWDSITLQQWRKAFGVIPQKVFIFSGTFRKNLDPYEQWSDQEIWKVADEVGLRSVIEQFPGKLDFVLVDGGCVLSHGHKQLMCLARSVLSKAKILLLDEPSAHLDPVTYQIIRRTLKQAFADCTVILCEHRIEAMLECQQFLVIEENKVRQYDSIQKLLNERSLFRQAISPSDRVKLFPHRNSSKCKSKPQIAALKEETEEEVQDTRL

Data set [2] deals with T1, CFTR. Description: Membrane Potential Dye, Enteroid Assay A. The format is cell-based. The conditions noted are these: for EC50: read-out: Ent. A EC50. An outline of the steps:
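Enteroid cells were loaded with methyl oxonol membrane potential dye (plus CaCCinh-A01 and Chicago Sky Blue) for 25 min at room temperature. Chloride transport was started by switching to chloride-free gluconate stimulation solution, with fluorescence read for 15 min. Activity was expressed as % of a triple-combination CFTR modulator control (3 μM, 3 μM, 300 nM acute).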
Target sequence in this assay (P13569 with tags, fused parts or gaps DEL508-508): as above

The target of data set [3] is T2, F508del (Homo sapiens, UniProt P13569, DEL508-508).
T2 construct: expressed in transfected cells
T2 sequence (P13569 with tags, fused parts or gaps DEL508-508): as above
In words: 3T3 assay: membrane potential optical assay for F508del correction in NIH 3T3 cells. The format is cell-based. The conditions noted are these: Table 8. An outline of the steps: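 NIH 3T3 mouse fibroblasts stably expressing F508del were incubated with corrector compounds at a range of concentrations for 16–24 h at 37° C, then loaded with a redistribution voltage-sensing dye. A single addition of forskolin under a chloride gradient (gluconate-substituted bath, pH 7.4) gave the membrane-potential response, read by FLIPR.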

For data set [4] the following is noted: from Cc1cccc(C)c1-c1cc(OC(CN)c2ccc(Br)cc2)nc(NS(=O)(=O)c2cccc(C(=O)O)c2)n1; amide bond; 13-membered ring; FDPP/DIEA; DMF; 36.8 mM; 25.0 °C; 1.0 h.
The target of data set [5] is T1, CFTR. Description: standard Ussing Chamber Assay for CFTR potentiator activity. The format is cell-based.
Target sequence in this assay (P13569 whole entry, species assumed): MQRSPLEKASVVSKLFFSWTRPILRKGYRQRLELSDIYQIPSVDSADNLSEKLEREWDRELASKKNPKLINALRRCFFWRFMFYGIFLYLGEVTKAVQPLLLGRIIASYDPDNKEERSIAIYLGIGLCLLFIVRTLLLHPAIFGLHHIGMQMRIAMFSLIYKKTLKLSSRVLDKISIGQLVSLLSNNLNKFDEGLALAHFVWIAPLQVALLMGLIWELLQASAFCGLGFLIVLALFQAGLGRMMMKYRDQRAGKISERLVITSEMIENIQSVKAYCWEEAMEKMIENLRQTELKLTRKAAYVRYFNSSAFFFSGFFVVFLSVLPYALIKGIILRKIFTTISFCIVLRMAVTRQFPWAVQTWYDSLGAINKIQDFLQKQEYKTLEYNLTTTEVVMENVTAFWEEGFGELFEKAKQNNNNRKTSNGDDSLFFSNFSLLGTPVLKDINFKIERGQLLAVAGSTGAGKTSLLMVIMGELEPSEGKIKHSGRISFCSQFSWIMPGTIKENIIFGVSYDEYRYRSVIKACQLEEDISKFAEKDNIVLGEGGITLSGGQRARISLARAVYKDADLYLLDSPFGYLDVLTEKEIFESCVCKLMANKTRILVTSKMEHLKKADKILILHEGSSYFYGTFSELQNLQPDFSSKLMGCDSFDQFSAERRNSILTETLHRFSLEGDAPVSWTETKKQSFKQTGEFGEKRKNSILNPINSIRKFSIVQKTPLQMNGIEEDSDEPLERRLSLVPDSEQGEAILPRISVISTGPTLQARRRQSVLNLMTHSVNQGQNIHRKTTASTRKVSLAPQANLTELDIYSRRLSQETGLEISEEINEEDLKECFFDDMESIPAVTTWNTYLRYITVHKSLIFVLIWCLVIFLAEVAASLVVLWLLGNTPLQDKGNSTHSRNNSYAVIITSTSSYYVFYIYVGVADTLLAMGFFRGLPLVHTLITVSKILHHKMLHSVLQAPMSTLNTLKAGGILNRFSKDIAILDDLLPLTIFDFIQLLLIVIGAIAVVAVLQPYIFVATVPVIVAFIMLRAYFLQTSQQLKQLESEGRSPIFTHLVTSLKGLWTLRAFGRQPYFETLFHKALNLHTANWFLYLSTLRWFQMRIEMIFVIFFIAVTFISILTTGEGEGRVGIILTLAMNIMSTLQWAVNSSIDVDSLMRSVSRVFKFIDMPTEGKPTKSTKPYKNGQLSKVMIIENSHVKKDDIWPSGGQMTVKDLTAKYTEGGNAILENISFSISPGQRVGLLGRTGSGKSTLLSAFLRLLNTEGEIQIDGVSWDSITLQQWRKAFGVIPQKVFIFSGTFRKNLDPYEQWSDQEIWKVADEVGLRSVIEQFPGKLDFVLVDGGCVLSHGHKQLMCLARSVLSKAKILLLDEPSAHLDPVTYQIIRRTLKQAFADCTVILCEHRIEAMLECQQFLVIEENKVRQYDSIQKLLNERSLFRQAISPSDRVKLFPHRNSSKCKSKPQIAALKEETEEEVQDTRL

Each structure is given as a SMILES string. Read-outs that look alike come from different tables or passages of the source.

In the case of `C=CCCCCCC[C@@H]1COc2cc(-c3ccccc3C=C)nc(n2)NS(=O)(=O)c2cccc(c2)C(=O)N1` [Compound 35, (11R)-11-Oct-7-enyl-2,2-dioxo-6-(2-vinylphenyl)-9-oxa-2λ^6-thia-3,5,12,19-tetrazatricyclo[12.3.1.14,8]nonadeca-1(18),4,6,8(19),14,16-hexaen-13-one], in data set [1] (Table 9), the “Ent. B Max Activity” value was “++ (++ is 30-60%)” and the EC50 (in general, the concentration needed to bring the measured effect to its halfway point) is below 1000 nM. For the same compound, the ring closure, isolated yield (from C=CCCCCCC[C@@H](N)COc1cc(-c2ccccc2C=C)nc(NS(=O)(=O)c2cccc(C(=O)O)c2)n1, amide bond, 13-membered ring, HATU/NaOtBu, DMF/THF, 19.4 mM, 0.0 °C, 0.67 h, 2 steps) turned out to be 35%.
With `Cc1cccc(C)c1-c1cc2nc(n1)NS(=O)(=O)c1cccc(c1)C(=O)N[C@H](C)[C@@H](c1ccc(C(C)(C)C)cc1)O2` [Compound 38, (10R,11R)-10-(4-tert-Butylphenyl)-6-(2,6-dimethylphenyl)-11-methyl-9-oxa-2λ^6-thia-3,5,12,19-tetraazatricyclo[12.3.1.14,8]nonadeca-1(18),4,6,8(19),14,16-hexaene-2,2,13-trione], in data set [2] (Table 8), the “Ent. A Max Activity” value was “+++ (+++ is >60%)” and the concentration for a half-maximal effect (EC50) is below 1000 nM. In data set [1] (Table 8), the “Ent. B Max Activity” value is on record as “+++ (+++ is >60%)” and the EC50 was below 1000 nM. For the same compound, the Emax in data set [3] (NIH3T3, read-out: 3T3 Max Activity) was above 60%. Besides, in data set [3], the EC50 is below 1000 nM. The same compound came in with a ring closure, isolated yield (from Cc1cccc(C)c1-c1cc(O[C@H](c2ccc(C(C)(C)C)cc2)[C@@H](C)N)nc(NS(=O)(=O)c2cccc(C(=O)O)c2)n1, amide bond, 13-membered ring, HATU/NaOtBu, DMF/MeTHF, 52.6 mM, 25.0 °C, 16.0 h, 2 steps) of 39%.
As to `Cc1cccc(C)c1-c1cc2nc(n1)NS(=O)(=O)c1cccc(c1)C(=O)N[C@@H]1CN(C(=O)OC(C)(C)C)CC[C@H]1O2` [Compound 59, tert-Butyl (3R,8R)-20-(2,6-dimethylphenyl)-10,16,16-trioxo-2-oxa-16λ^6-thia-6,9,17,19,22-pentaazatetracyclo[16.3.1.111,15.03,8]tricosa-1(21),11(23),12,14,18(22),19-hexaene-6-carboxylate], in data set [2] (Table 9), the “Ent. A Max Activity” value was “+++ (+++ is >60%)” and the half-maximal effective concentration (EC50) was below 1000 nM. The compound also returned a ring closure, isolated yield (from Cc1cccc(C)c1-c1cc(O[C@@H]2CCN(C(=O)OC(C)(C)C)C[C@H]2N)nc(NS(=O)(=O)c2cccc(C(=O)O)c2)n1, amide bond, 13-membered ring, COMU/DIEA, DMF, 19.4 mM, 19.0 h) of 34%.
`Cc1cccc(C)c1-c1cc2nc(n1)NS(=O)(=O)c1cccc(c1)C(=O)NCC(c1ccc(Br)cc1)O2` (centres unmarked): the ring closure, isolated yield (from Cc1cccc(C)c1-c1cc(OC(CN)c2ccc(Br)cc2)nc(NS(=O)(=O)c2cccc(C(=O)O)c2)n1, amide bond, 13-membered ring, HATU/DIEA, DMF, 26.4 mM, 25.0 °C, 2.0 h) is 25%. In data set [4], this compound yielded a ring closure, yield after HPLC of 52%.
Turning to `C[C@@H]1CCCCC[C@](O)(C(F)(F)F)C2=NN=C(O2)c2nc(c(C(F)(F)F)cc2N)O1` [(6R,12R)-17-amino-12-methyl-6,15-bis(trifluoromethyl)-13,19-dioxa-3,4,18-triazatricyclo[12.3.1.12,5]nonadeca-1(18),2,4,14,16-pentaen-6-ol], the CFTR modulatory activity entry in data set [5] is reported as “confirmed”.
Consider `Cc1cccc(C)c1-c1cc2nc(n1)NS(=O)(=O)c1cccc(c1)C(=O)NCC1(CCN(C(=O)OC(C)(C)C)CC1)CO2` [Compound 81, tert-Butyl 6-(2,6-dimethylphenyl)-2,2,14-trioxo-spiro[9-oxa-2λ^6-thia-3,5,13,20-tetrazatricyclo[13.3.1.14,8]icosa-1(19),4(20),5,7,15,17-hexaene-11,4′-piperidine]-1′-carboxylate], for which the EC50 in data set [2] (Enteroid Assay A) was 1000 to 3000 nM. This compound also came in with a ring closure, isolated yield (from Cc1cccc(C)c1-c1cc(Cl)nc(NS(=O)(=O)c2cccc(C(=O)NCC3(CO)CCN(C(=O)OC(C)(C)C)CC3)c2)n1, snar bond, 14-membered ring, NaH, THF, 5.0 mM, 25.0 °C, 3.0 h) of 66%.
With `Cc1cccc(C)c1-c1cc2nc(n1)NS(=O)(=O)c1cccc(c1)C(=O)N[C@@H]1CN(C(=O)OC(C)(C)C)C[C@H]1O2` [Compound 57, tert-Butyl (3R,7R)-19-(2,6-dimethylphenyl)-9,15,15-trioxo-2-oxa-15λ^6-thia-5,8,16,18,21-pentaazatetracyclo[15.3.1.110,14.03,7]docosa-1(20),10(22),11,13,17(21),18-hexaene-5-carboxylate], in data set [2] (Table 9), the “Ent. A Max Activity” value is “+++ (+++ is >60%)” and the concentration for a half-maximal effect (EC50) was in the range of 1000 to 3000 nM. Besides, in data set [1] (Table 9), the “Ent. B Max Activity” value is listed as “+++ (+++ is >60%)” and the 50% effective concentration (EC50) fell in the range of 1000 to 3000 nM. This compound also gave a ring closure, isolated yield (from Cc1cccc(C)c1-c1cc(O[C@@H]2CN(C(=O)OC(C)(C)C)C[C@H]2N)nc(NS(=O)(=O)c2cccc(C(=O)O)c2)n1, amide bond, 13-membered ring, HATU/DIEA, DMF, 17.1 mM, 72.0 h) of 18%.
